From patent US20220144938A1, “IDENTIFICATION AND TARGETING OF TUMOR PROMOTING CARCINOMA ASSOCIATED FIBROBLASTS FOR DIAGNOSIS AND TREATMENT OF CANCER AND OTHER DISEASES” (Board of Regents, The University of Texas System, priority 2018, published 2022)
“Also recorded” adds a separate entry of the source.

How the values were obtained:
[1] = tested on: phospho-Stat3, phospho-ERK1/2, phospho-Akt; assay: Immunohistochemistry for phospho-Stat3, phospho-ERK1/2 and phospho-Akt in tumors; assay type: in vivo, mice
Protocol: (§1) Formalin-fixed, paraffin-embedded (FFPE) sections were processed for immunohistochemical (IHC) staining as previously described (Zheng et al., 2015), after Citrate based antigen retrieval (pH=6). For FAP staining in mouse FFPE sections citrate-based antigen retrieval was performed at pH 7.4. Staining for αSMA was performed with M.O.M. kit (Vector Laboratories) following the manufacturer's instructions. For all other staining, sections were incubated with biotinylated goat anti-rabbit and streptavidin HRP (Biocare Medical), each for 10 min. For all staining, counterstaining with hematoxylin was performed and DAB positivity was examined in ten visual fields at 200× magnification. […] The images were quantified for positive area using NIH ImageJ analysis software (αSMA, CD31, CK19, cleaved caspase-3, Ki67, MTS, phospho-Akt, phospho-ERK1/2, phospho-Stat3). For αSMA and FAP double immunofluorescence in human FFPE sections, secondary anti-sheep Alexa Fluor 488 and anti-mouse Alexa Fluor 534 antibodies were incubated for 30 min at RT. For αSMA and FAP IHC on FAP-TK and control tumor sections, immunoreactive score (IRS) were obtained from the sum of distribution and intensity scores for each section, established on a scale of 1 to 4 (Meyerholz & Beck, 2018).

[2] = tested on: PDAC tumors lacking p53 (KPPF); assay: Survival of PDAC genetically engineered mice under treatment (Kaplan-Meier, log rank); assay type: in vivo
Description: Mice. FSF-Kras^G12D/+ (Schonhuber et al., 2014), Pdx1-Flp (Schonhuber et al., 2014), Trp53^frt/+ (Lee et al., 2012), LSL-Kras^G12D/+ (Hingorani et al., 2005), Pdx1-Cre (Hingorani et al., 2005), αSMA-Cre (LeBleu et al., 2013), αSMA-RFP (LeBleu et al., 2013), Rosa26-loxP-Stop-loxP-YFP (Ozdemir et al., 2014), Tgfbr2^loxP/loxP (Ijichi et al., 2006), and IL-6^loxP/loxP (Quintana et al., 2013) mouse strains were previously documented. The Rosa26-CAG-loxP-frt-Stop-frt-FireflyLuc-EGFP-loxP-RenillaLuc-tdTomato (referred to as R26^Dual), FSF-Kras^G12D/+, Pdx1-Flp, and Trp53^frt/+ strains were kindly provided by D. Saur, and the R26R-Brainbow2.1/Confetti (referred to as R26^Confetti) strain was purchased from Jackson Laboratory (Stock 013731). The IL-6^−/− strain was generated by crossing the IL-6^loxP/loxP strain with CMV-Cre strain (Jackson Laboratory; Stock 006054). The FAP-TK transgenic strain was newly generated: a 5 kb sequence flanking the FAP promoter and partial Exon 1 (Ex1) was cloned into pORF-HSV1-TK vector (Invivogen) using NotI and AgeI. The sequence-confirmed FAP-TK construct was released from the vector using NotI and SwaI before purification and injection into fertilized eggs. The transgenic mice were generated on the C57Bl/6 genetic background. These mice were bred onto PDAC GEM or implanted orthotopically with 689KPC cancer cells, as previously described (Kamerkar et al., 2017). Mice were maintained on a mixed genetic background and both male and female mice were evaluated. Mice were given gemcitabine (G-4177, LC Laboratories) intraperitoneally (i.p.) twice per week at 40 mg/kg of body weight. Gemcitabine treatment was initiated at 35 days of age. Ganciclovir (GCV; sud-gcv, Invivogen) was administered i.p. daily at 50 mg/kg of body weight ([…]). GCV was administered to PKT mice at 28 to 30 days of age, and to PKP mice at 50-51 days of age. Some of the tissues analyzed from the PKT;αSMA-TK GEM were from mice that were previously published (Ozdemir et al., 2014). […]

intra-tumoral T cells = assay: Flow cytometry characterization of tumor immune infiltration; assay type: in vivo; conditions: gemcitabine treatment, mice with IL-6
Protocol: For the characterization of immune infiltration, tumors (from 2.5-month-old mice, treated with saline or gemcitabine for 2 weeks) were weighed, minced with gentleMACS Dissociator, and digested in 2 mL solution containing 1 mg/mL Liberase TL (Roche) and 0.2 mg/mL DNase I in DMEM media at 37° C. for 30 min. Spleens were weighed and filtered through a 100 μm mesh. Peripheral blood was collected with EDTA-tube, incubated with ACK lysis buffer for 5 min, and proceeded to mesh filtration. The tissue lysates were filtered through a 100 μm mesh before immunostaining. The subsequent single-cells suspension was stained with Fixable Viability Dye eFluor 780 (eBioscience) and antibodies specified in Table 2. The percentage positive cells were analyzed by FlowJo 10.1 and gated on CD45 positivity. Unstained, viability stain only, and single-stained beads (eBioscience) were used as compensation controls. Singlets were gated using forward scatter (FSC) height (FSC-H) and FSC area (FSC-A) event characteristics.

[3] = tested on: IL-6 and Acta2 (αSMA) transcripts; assay: qPCR and immunolabeling of IL-6 and αSMA in tumors; assay type: in vivo; conditions: tumors of KPPF mice following gemcitabine treatment
Protocol: as §1, with “For αSMA and FAP IHC on FAP-TK and control tumor sections, immunoreactive score (IRS) were obtained from the sum of distribution and intensity scores for each section, established on a scale of 1 to 4 (Meyerholz & Beck, 2018).” left out
Gene expression analyses and global gene expression profiling. […] The expression level of detected genes was normalized to that of Gapdh housekeeping gene. […] Primer sequences for detected genes are listed below. […]

PDAC tumors (KPPF GEM) [4] = assay: Immunohistochemistry/staining of pancreas sections for CD31, Ki67, cleaved caspase 3 and MTS; assay type: in vivo, mice
Protocol: as §1
Histopathological Scoring. Mouse tissues were fixed in 10% neutral buffered formalin, embedded in paraffin, and sectioned at 5 μm thickness. Sections were processed for haematoxylin and eosin (H&E) staining and/or Masson's trichrome staining (MTS) using Gomori's Trichome Stain Kit (38016SS2, Leica Biosystems). Histopathological assessments were conducted in a blinded fashion by scoring H&E-stained sections for relative percentages of the listed histopathological phenotypes. Tumor scores for orthotopic tumors were attributed on a scale from 1 (minor involvement) to 4 (extensive involvement), which evaluated on H&E sections of the entire pancreas the relative tumor involvement. Microscopic metastases were examined in H&E-stained tissue sections of the liver and lung. Positivity (one or more lesions in one tissue) was confirmed by CK19 staining. Images were obtained with a Leica DM 1000 LED microscope and an MC120 HD Microscope Camera with Las V4.4 Software (Leica).

PDAC tumors (KPPF GEM) [5] = assay: Histopathological scoring and tumor burden of pancreas tumors; assay type: in vivo; conditions: gemcitabine in KPPF;IL-6smaKO vs KPPF mice
Description: Mice. FSF-Kras^G12D/+ (Schonhuber et al., 2014), Pdx1-Flp (Schonhuber et al., 2014), Trp53^frt/+ (Lee et al., 2012), LSL-Kras^G12D/+ (Hingorani et al., 2005), Pdx1-Cre (Hingorani et al., 2005), αSMA-Cre (LeBleu et al., 2013), αSMA-RFP (LeBleu et al., 2013), Rosa26-loxP-Stop-loxP-YFP (Ozdemir et al., 2014), Tgfbr2^loxP/loxP (Ijichi et al., 2006), and IL-6^loxP/loxP (Quintana et al., 2013) mouse strains were previously documented. The Rosa26-CAG-loxP-frt-Stop-frt-FireflyLuc-EGFP-loxP-RenillaLuc-tdTomato (referred to as R26^Dual), FSF-Kras^G12D/+, Pdx1-Flp, and Trp53^frt/+ strains were kindly provided by D. Saur, and the R26R-Brainbow2.1/Confetti (referred to as R26^Confetti) strain was purchased from Jackson Laboratory (Stock 013731). The IL-6^−/− strain was generated by crossing the IL-6^loxP/loxP strain with CMV-Cre strain (Jackson Laboratory; Stock 006054). […] Mice were maintained on a mixed genetic background and both male and female mice were evaluated. […] Some of the tissues analyzed from the PKT;αSMA-TK GEM were from mice that were previously published (Ozdemir et al., 2014). […]
Histopathological Scoring. […] Tumor scores for orthotopic tumors were attributed on a scale from 1 (minor involvement) to 4 (extensive involvement), which evaluated on H&E sections of the entire pancreas the relative tumor involvement. […]

[6] = gemcitabine with loss of IL-6 from αSMA+ CAFs (KPPF;IL-6smaKO)
[7] = tumors of KPPF mice treated with gemcitabine
[8] = gemcitabine in mice with αSMA+ CAFs-specific loss of IL-6, vs controls

Nc1ccn([C@@H]2O[C@H](CO)[C@@H](O)C2(F)F)c(=O)n1 [gemcitabine]
gemcitabine-induced change in phosphorylated Akt [1, 6]: significantly attenuated | gemcitabine-induced change in phosphorylated ERK1/2 [1, 6]: significantly attenuated | gemcitabine-induced change in phosphorylated Stat3 [1, 6]: significantly attenuated | levels of phosphorylated Akt in cancer cells [1, 7]: elevated levels | levels of phosphorylated ERK1/2 in cancer cells [1, 7]: elevated levels | levels of phosphorylated Stat3 in cancer cells [1, 7]: elevated levels | overall survival ([2]; KPPF mice, gemcitabine 40 mg/kg i.p. twice per week, vs untreated KPPF mice): no benefit | overall survival ([2]; KPPF;IL-6smaKO mice (αSMA+ CAFs-specific loss of IL-6) treated with gemcitabine, vs KPPF mice treated with gemcitabine): increase in overall survival; also recorded: overall increase in survival | overall survival ([2]; KPPF;IL-6−/− mice (absent IL-6) treated with gemcitabine, vs KPPF mice treated with gemcitabine): increased overall survival; also recorded: overall increase in survival | intra-tumoral T cell frequencies (intra-tumoral T cells): minimally impacted | IL-6 transcript levels and positive cells [3]: elevated | αSMA transcript levels and αSMA+ CAFs [3]: elevated | cleaved caspase-3, indicative of apoptosis (PDAC tumors (KPPF GEM) [4]; gemcitabine concurrent with αSMA+ CAFs-specific loss of IL-6): further increased | cancer cell proliferation (PDAC tumors (KPPF GEM) [4]; [8]): did not significantly impact | tumor collagen deposition (PDAC tumors (KPPF GEM) [4]; [8]): did not significantly impact | tumor vasculature (PDAC tumors (KPPF GEM) [4]; [8]): did not significantly impact | cleaved caspase-3, indicative of apoptosis (PDAC tumors (KPPF GEM) [4]; mice treated with gemcitabine): elevated | tumor burden (PDAC tumors (KPPF GEM) [5]): reduced tumor burden | histopathology (PDAC tumors (KPPF GEM) [5]; moribund endpoint): improved histopathology
